The results in this text go back to publication PMC13099141, “Antibiotic potentiation and inhibition of cross-resistance in pathogens associated with cystic fibrosis” (eLife, 2026).

SMILES strings stand for the structures.

What all share (test): nitrocefin hydrolysis, absorbance at […] nm, sonicated lysate
Format in all cases: biochemical
Holding throughout (conditions): 0.4 mM nitrocefin, 100 mM sodium phosphate pH 7.0, 25 °C; dsbA+ E. coli

The target of experiment [1] is T1, BEL-1 (Pseudomonas aeruginosa, UniProt Q3SAW3).
T1 construct: gene bla(BEL1); full-length class A beta-lactamase from plasmid pDM1-blaBEL-1 in E. coli MC1000, sonicated lysate; gene from clinical isolate

In experiment [2] the target is T2, SMB-1 (Serratia marcescens, UniProt G5ELM3).
T2 construct: full-length class B3 metallo-beta-lactamase, synthetic gene in pDM1, E. coli MC1000 lysate

The target of experiment [3] is T3, AIM-1 (Pseudomonas aeruginosa, UniProt B5DCA0).
T3 construct: gene blaAIM-1; full-length class B3 metallo-beta-lactamase from pDM1-blaAIM-1 in E. coli MC1000, lysate; gene from clinical isolate

The target in experiment [4] is T4, OXA-50 (Pseudomonas aeruginosa, UniProt G3XCV9).
T4 construct: gene PA5514; full-length class D beta-lactamase from pDM1-blaOXA-50 in E. coli MC1000, lysate; gene from clinical isolate

Experiment [5] concerns the target T5, CARB-2 (Pseudomonas aeruginosa, UniProt Q03170).
T5 construct: gene pse1; full-length class A carbenicillinase, synthetic gene in pDM1, E. coli MC1000 lysate

The target in experiment [6] is T6, POM-1 (Metapseudomonas otitidis, UniProt E6Y3G9).
T6 construct: gene pom1; full-length class B3 metallo-beta-lactamase from pDM1-blaPOM-1 in E. coli MC1000, lysate; gene from clinical isolate
T6 sequence (E6Y3G9 entry or part of it): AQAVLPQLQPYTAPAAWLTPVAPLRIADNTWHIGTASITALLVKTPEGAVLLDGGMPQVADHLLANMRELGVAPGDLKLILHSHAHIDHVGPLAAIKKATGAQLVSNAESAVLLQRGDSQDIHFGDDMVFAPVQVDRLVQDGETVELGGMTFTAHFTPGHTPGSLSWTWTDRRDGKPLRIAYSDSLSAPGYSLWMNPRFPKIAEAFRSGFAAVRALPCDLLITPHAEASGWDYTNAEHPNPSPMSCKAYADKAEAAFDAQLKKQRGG

T3 sequence (B5DCA0 entry or part of it): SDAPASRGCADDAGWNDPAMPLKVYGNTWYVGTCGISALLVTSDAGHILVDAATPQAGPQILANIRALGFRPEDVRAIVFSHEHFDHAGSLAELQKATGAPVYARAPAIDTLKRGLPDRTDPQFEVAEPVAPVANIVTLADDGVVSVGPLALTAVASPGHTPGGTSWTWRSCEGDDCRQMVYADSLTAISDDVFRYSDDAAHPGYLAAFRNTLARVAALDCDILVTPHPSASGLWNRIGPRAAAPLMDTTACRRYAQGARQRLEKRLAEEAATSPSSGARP
T4 sequence (G3XCV9 entry or part of it): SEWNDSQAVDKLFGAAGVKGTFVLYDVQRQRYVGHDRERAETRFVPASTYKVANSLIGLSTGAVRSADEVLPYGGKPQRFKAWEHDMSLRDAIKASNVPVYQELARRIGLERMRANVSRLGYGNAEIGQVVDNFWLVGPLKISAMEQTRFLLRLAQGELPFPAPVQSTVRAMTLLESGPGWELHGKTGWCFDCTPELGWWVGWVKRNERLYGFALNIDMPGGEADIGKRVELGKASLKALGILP
T5 sequence (Q03170 18-288): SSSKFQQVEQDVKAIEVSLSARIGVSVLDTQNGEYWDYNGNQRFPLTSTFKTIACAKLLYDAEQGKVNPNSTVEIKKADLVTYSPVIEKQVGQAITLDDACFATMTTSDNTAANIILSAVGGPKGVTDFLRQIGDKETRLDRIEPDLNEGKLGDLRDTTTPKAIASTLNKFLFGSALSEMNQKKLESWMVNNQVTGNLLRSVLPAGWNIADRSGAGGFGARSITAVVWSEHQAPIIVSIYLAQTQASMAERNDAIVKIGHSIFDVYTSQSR
T1 sequence (Q3SAW3 entry or part of it): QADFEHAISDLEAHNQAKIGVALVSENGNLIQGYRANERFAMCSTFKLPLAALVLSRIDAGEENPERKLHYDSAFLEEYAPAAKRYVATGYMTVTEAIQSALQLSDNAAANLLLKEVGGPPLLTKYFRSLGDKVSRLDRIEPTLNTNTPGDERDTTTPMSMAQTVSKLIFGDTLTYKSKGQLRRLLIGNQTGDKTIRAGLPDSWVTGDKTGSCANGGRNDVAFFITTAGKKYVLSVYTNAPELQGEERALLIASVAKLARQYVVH
T2 sequence (G5ELM3 entry or part of it): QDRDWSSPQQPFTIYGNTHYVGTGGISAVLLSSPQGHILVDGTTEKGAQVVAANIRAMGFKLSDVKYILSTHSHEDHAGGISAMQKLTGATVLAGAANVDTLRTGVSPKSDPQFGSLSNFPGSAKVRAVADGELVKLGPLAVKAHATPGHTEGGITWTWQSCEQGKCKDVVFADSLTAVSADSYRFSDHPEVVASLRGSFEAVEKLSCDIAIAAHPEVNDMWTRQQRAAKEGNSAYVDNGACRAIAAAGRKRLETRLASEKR

As to `O=C(Cc1cccs1)N[C@@H]1C(=O)N2C(C(=O)O)=C(/C=C/c3ccc([N+](=O)[O-])cc3[N+](=O)[O-])CS[C@H]12` [nitrocefin], the “nitrocefin hydrolysis, absorbance at 490 nm, sonicated lysate” value in experiment [1] was “The hydrolysis of the chromogenic β-lactam nitrocefin by cysteine-containing β-lactamases is impaired”; in experiment [2], “The hydrolytic activities of both tested β-lactamases are significantly reduced in the absence of DsbA”; in experiment [3] it was “The hydrolysis of the chromogenic β-lactam nitrocefin by cysteine-containing β-lactamases is impaired”; in experiment [4], “The hydrolysis of the chromogenic β-lactam nitrocefin by cysteine-containing β-lactamases is impaired”; in experiment [5], “The hydrolysis of the chromogenic β-lactam nitrocefin by cysteine-containing β-lactamases is impaired”; in experiment [6], “The hydrolytic activities of both tested β-lactamases are significantly reduced in the absence of DsbA”.
